{
  "source": "paper PMC3486420",
  "about": "“In Vitro and In Vivo Characterizations of Chiglitazar, a Newly Identified PPAR Pan-Agonist” (PPAR Research, 2012)",
  "key": {"Wistar obese rats": {"tested_on": "Wistar obese rats", "set-up": "method as in PMID 16751799", "settings": "Wistar obese rats treated for 9–40 days ref 18; cited from earlier work"}, "PPARα": {"biological_target": "T1, PPARα (Homo sapiens, UniProt Q07869)", "T1 sequence (Q07869 1-468)": "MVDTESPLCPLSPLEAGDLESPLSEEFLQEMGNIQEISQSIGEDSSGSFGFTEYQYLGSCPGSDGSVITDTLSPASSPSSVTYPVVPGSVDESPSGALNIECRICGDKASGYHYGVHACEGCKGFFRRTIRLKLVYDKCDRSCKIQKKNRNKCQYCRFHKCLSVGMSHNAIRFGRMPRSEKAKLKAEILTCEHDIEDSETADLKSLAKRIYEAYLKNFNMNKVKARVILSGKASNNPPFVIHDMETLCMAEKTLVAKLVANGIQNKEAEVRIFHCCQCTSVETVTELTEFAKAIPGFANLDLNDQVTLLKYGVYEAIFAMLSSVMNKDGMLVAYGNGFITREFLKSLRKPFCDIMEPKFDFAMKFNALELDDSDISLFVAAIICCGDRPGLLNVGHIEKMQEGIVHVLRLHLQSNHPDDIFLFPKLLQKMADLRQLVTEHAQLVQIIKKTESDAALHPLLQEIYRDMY", "T1 sequence (P19793 1-462 partner)": "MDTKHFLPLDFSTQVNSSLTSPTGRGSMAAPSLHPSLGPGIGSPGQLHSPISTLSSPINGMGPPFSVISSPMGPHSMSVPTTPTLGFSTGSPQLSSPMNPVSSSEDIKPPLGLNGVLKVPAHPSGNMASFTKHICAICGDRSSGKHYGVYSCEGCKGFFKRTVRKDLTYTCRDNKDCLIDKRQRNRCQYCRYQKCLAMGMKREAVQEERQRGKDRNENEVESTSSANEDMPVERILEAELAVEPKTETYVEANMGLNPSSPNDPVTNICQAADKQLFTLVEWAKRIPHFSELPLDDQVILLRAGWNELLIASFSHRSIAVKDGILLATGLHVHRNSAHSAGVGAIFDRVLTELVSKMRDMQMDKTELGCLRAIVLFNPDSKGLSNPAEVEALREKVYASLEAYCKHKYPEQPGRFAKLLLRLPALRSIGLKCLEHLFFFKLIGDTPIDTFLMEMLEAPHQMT", "assay": "PPARα transactivation reporter gene assay in SMMC-7721 cells", "format": "cell-based"}, "KKAy mice": {"tested_on": "KKAy mice", "assay": "Oral treatment of diabetic KKAy mice (glucose, body weight)", "format": "in vivo, mouse", "from_the_text": "Male db/db mice (BKS.Cg-m +/+ LEPR^db) in 6-7 weeks were purchased from The Jackson Laboratory (Bar Harbor, ME, USA). Male KKAy and C57BL/6J mice in 8–10 weeks were obtained from the Institute of Animal Science, Chinese Academy of Medical Sciences and Peking Union Medical College (Beijing, China). Animals were randomly sorted into different treatment groups (8–10 per group). […] Plasma glucose levels were examined at various time points by Accu-Chek Advantage II Glucose Strips (Roche Diagnostics, Basel, Switzerland) and measured by Accu-Chek Advantage (Roche Diagnostics). Animals were sacrificed 24 h after the last dosing and abdominal fat pad, liver, and skeletal muscle from KKAy mice and abdominal fat pad from db/db mice were taken for gene expression analysis.\nFigure 2 In vivo effects on blood glucose control and insulin sensitization of chiglitazar. […] Plasma glucose (a and b) and insulin (c) levels were measured at the indicated time points. […] Data are expressed as mean ± SE.\nFigure 4 Influence in body and abdominal fat pad weights of chiglitazar. […] Changes in body weight were evaluated at the indicated days (b), and the fat pads were weighed from the scarified animals at day 15 (c). ^# P < 0.05 compared with day 0, and *P < 0.05 compared with Ctrl. n = 8 per group for KKAy, and n = 10 per group for db/db. Data are expressed as mean ± SE."}, "beagle dogs": {"tested_on": "beagle dogs", "assay": "Heart weight in beagle dogs, chronic treatment", "format": "in vivo, dog", "settings": "same regime (6 months), 54 mg kg^−1 (~1000 mg/m^2), data not shown"}},
  "data": [
    {"smiles": "O=C(c1ccc(F)cc1)c1ccccc1NC(Cc1ccc(OCCn2c3ccccc3c3ccccc32)cc1)C(=O)O", "note": "(stereo not drawn) [Chi, 2-[(2-(4-fluorobenzoyl)phenyl)amino]-3-[4-(2-carbazolylethoxy)-phenyl]-propionic acid]", "values": [
      {"measurement": "Optimal efficacy dose", "setting": "Wistar obese rats", "value": 10, "unit": "mg/kg"},
      {"measurement": "EC50", "setting": "PPARα; 24 h treatment, luciferase reporter, hRXR cotransfected, ia: inactive at 10 μM", "value": "1100 ± 300", "unit": "nM"},
      {"measurement": "PPARα % Max", "setting": "PPARα; max response compared with WY at 50 μM", "value": 142, "unit": "%"},
      {"measurement": "Body weight", "setting": "KKAy mice; 5 and 20 mg kg^−1 oral daily, 12 days, in comparison with rosiglitazone 5 mg kg^−1", "value": "did not increase"},
      {"measurement": "BG (blood glucose) levels", "setting": "KKAy mice; oral daily, 5 to 20 mg kg^−1, 12 days", "value": "significantly lowered"},
      {"measurement": "Heart weight", "setting": "beagle dogs", "value": "did not induce significant increase"}
    ]}
  ]
}
